Test results published in ChEMBL document CHEMBL3885881, “DrugMatrix”.

Species on record: Rattus norvegicus
Experiment: DrugMatrix - Regimen: Daily Repeat
Type: toxicity, organism-based, Sprague-Dawley
Set-up: regimen Daily Repeat, gender Male, age 6-8 weeks
Conditions: in vivo, sc, route subcutaneous, […]; for ABSOLUTE BASOPHIL / ABSOLUTE EOSINOPHIL / ABSOLUTE LYMPHOCYTE / ABSOLUTE MONOCYTE / ABSOLUTE SEGMENTED NEUTROPHIL / BASOPHIL / EOSINOPHIL / ERYTHROCYTE COUNT / HEMATOCRIT / HEMOGLOBIN / LEUKOCYTE COUNT / LYMPHOCYTE / MEAN CORPUSCULAR HEMOGLOBIN / MEAN CORPUSCULAR VOLUME / MONOCYTE / NEUTROPHIL / NUCLEATED RED BLOOD CELLS / PLATELET COUNT: tissue Blood; for ALANINE AMINOTRANSFERASE / ALBUMIN / ALKALINE PHOSPHATASE / ASPARTATE AMINOTRANSFERASE / BLOOD UREA NITROGEN / CARBON DIOXIDE / CHLORIDE / CHOLESTEROL / CREATINE PHOSPHOKINASE / CREATININE / GLUCOSE / LACTATE DEHYDROGENASE / LIPASE / PHOSPHORUS / POTASSIUM / SODIUM / TOTAL BILIRUBIN / TOTAL PROTEIN / URIC ACID: tissue Plasma
[1] = 50 mg/kg, 120 h, dose level Low, time 5 day
[2] = 450 mg/kg, 72 h, dose level M2, time 3 day
[3] = 450 mg/kg, 120 h, dose level M2, time 5 day

SMILES: CCCCCCCCc1ccc(O)cc1 [4-OCTYLPHENOL]
- ABSOLUTE BASOPHIL [1]: 0 CELLS/uL
- ABSOLUTE EOSINOPHIL [1]: 65.33 CELLS/uL
- ABSOLUTE LYMPHOCYTE [1]: 9619.33 CELLS/uL
- ABSOLUTE MONOCYTE [1]: 226 CELLS/uL
- ABSOLUTE SEGMENTED NEUTROPHIL [1]: 589.33 CELLS/uL
- BASOPHIL [1]: 0%
- EOSINOPHIL [1]: 0.67%
- ERYTHROCYTE COUNT [1]: 5.5 x10E6/uL
- HEMATOCRIT [1]: 35.3%
- HEMOGLOBIN [1]: 13.8 G/DL
- LEUKOCYTE COUNT [1]: 10.5 x10E3/uL
- LYMPHOCYTE [1]: 91.33%
- MEAN CORPUSCULAR HEMOGLOBIN [1]: 25.17 pg
- MEAN CORPUSCULAR VOLUME [1]: 64.33 fL
- MONOCYTE [1]: 2.33%
- NEUTROPHIL [1]: 5.67%
- NUCLEATED RED BLOOD CELLS [1]: 0 /100WBC
- PLATELET COUNT [1]: 1190 x10E3/uL
- ALANINE AMINOTRANSFERASE [1]: 45.33 u/L
- ALBUMIN [1]: 3.2 G/DL
- ALKALINE PHOSPHATASE [1]: 276.67 u/L
- ASPARTATE AMINOTRANSFERASE [1]: 80 u/L
- BLOOD UREA NITROGEN [1]: 15 mg/dL
- CARBON DIOXIDE [1]: 29.67 mmol/L
- CHLORIDE [1]: 100 MEQ/L
- CHOLESTEROL [1]: 78 mg/dL
- CREATINE PHOSPHOKINASE [1]: 339.67 u/L
- CREATININE [1]: 0.16 mg/dL
- GLUCOSE [1]: 161.33 mg/dL
- LACTATE DEHYDROGENASE [1]: 367 u/L
- LIPASE [1]: 9 u/L
- PHOSPHORUS [1]: 12.2 mg/dL
- POTASSIUM [1]: 6.42 MEQ/L
- SODIUM [1]: 141.23 MEQ/L
- TOTAL BILIRUBIN [1]: 0.1 mg/dL
- TOTAL PROTEIN [1]: 5.57 G/DL
- URIC ACID [1]: 1.5 mg/dL
- ABSOLUTE BASOPHIL [2]: 0 CELLS/uL
- ABSOLUTE EOSINOPHIL [2]: 58 CELLS/uL
- ABSOLUTE LYMPHOCYTE [2]: 8257.67 CELLS/uL
- ABSOLUTE MONOCYTE [2]: 28.33 CELLS/uL
- ABSOLUTE SEGMENTED NEUTROPHIL [2]: 256 CELLS/uL
- BASOPHIL [2]: 0%
- EOSINOPHIL [2]: 0.67%
- ERYTHROCYTE COUNT [2]: 5.23 x10E6/uL
- HEMATOCRIT [2]: 32.2%
- HEMOGLOBIN [2]: 12.73 G/DL
- LEUKOCYTE COUNT [2]: 8.6 x10E3/uL
- LYMPHOCYTE [2]: 96%
- MEAN CORPUSCULAR HEMOGLOBIN [2]: 24.37 pg
- MEAN CORPUSCULAR VOLUME [2]: 61.63 fL
- MONOCYTE [2]: 0.33%
- NEUTROPHIL [2]: 3%
- NUCLEATED RED BLOOD CELLS [2]: 0 /100WBC
- PLATELET COUNT [2]: 1100 x10E3/uL
- ALANINE AMINOTRANSFERASE [2]: 61 u/L
- ALBUMIN [2]: 3.07 G/DL
- ALKALINE PHOSPHATASE [2]: 305.67 u/L
- ASPARTATE AMINOTRANSFERASE [2]: 93.67 u/L
- BLOOD UREA NITROGEN [2]: 9.67 mg/dL
- CARBON DIOXIDE [2]: 24 mmol/L
- CHLORIDE [2]: 94 MEQ/L
- CHOLESTEROL [2]: 75.33 mg/dL
- CREATINE PHOSPHOKINASE [2]: 340.33 u/L
- CREATININE [2]: 0.3 mg/dL
- GLUCOSE [2]: 117.67 mg/dL
- LACTATE DEHYDROGENASE [2]: 409.67 u/L
- LIPASE [2]: 9 u/L
- PHOSPHORUS [2]: 10.37 mg/dL
- POTASSIUM [2]: 5.55 MEQ/L
- SODIUM [2]: 137.75 MEQ/L
- TOTAL BILIRUBIN [2]: 0.1 mg/dL
- TOTAL PROTEIN [2]: 5.1 G/DL
- URIC ACID [2]: 0.63 mg/dL
- ABSOLUTE BASOPHIL [3]: 0 CELLS/uL
- ABSOLUTE EOSINOPHIL [3]: 224.33 CELLS/uL
- ABSOLUTE LYMPHOCYTE [3]: 13520.67 CELLS/uL
- ABSOLUTE MONOCYTE [3]: 303.33 CELLS/uL
- ABSOLUTE SEGMENTED NEUTROPHIL [3]: 3318.33 CELLS/uL
- BASOPHIL [3]: 0%
- EOSINOPHIL [3]: 1.33%
- ERYTHROCYTE COUNT [3]: 5.94 x10E6/uL
- HEMATOCRIT [3]: 36.27%
- HEMOGLOBIN [3]: 14.17 G/DL
- LEUKOCYTE COUNT [3]: 17.37 x10E3/uL
- LYMPHOCYTE [3]: 78%
- MEAN CORPUSCULAR HEMOGLOBIN [3]: 23.97 pg
- MEAN CORPUSCULAR VOLUME [3]: 61.27 fL
- MONOCYTE [3]: 1.67%
- NEUTROPHIL [3]: 19%
- NUCLEATED RED BLOOD CELLS [3]: 0 /100WBC
- PLATELET COUNT [3]: 1864.67 x10E3/uL
- ALANINE AMINOTRANSFERASE [3]: 43.33 u/L
- ALBUMIN [3]: 3.17 G/DL
- ALKALINE PHOSPHATASE [3]: 326.67 u/L
- ASPARTATE AMINOTRANSFERASE [3]: 82.67 u/L
- BLOOD UREA NITROGEN [3]: 14 mg/dL
- CARBON DIOXIDE [3]: 25.33 mmol/L
- CHLORIDE [3]: 102.67 MEQ/L
- CHOLESTEROL [3]: 71.67 mg/dL
- CREATINE PHOSPHOKINASE [3]: 343 u/L
- CREATININE [3]: 0.19 mg/dL
- GLUCOSE [3]: 162.33 mg/dL
- LACTATE DEHYDROGENASE [3]: 384.67 u/L
- LIPASE [3]: 9.67 u/L
- PHOSPHORUS [3]: 12.93 mg/dL
- POTASSIUM [3]: 7.17 MEQ/L
- SODIUM [3]: 141.23 MEQ/L
- TOTAL BILIRUBIN [3]: 0.13 mg/dL
- TOTAL PROTEIN [3]: 5.4 G/DL
- URIC ACID [3]: 2.67 mg/dL
